Read-outs that look alike come from different tables or passages of the source.
Test system: CLAUDIN 1
Settings: human keratinocytes
Description: Cultures of human keratinocytes are treated with two concentrations of solutions, of the hexadecapeptide PuraMatrix™ (supplied by BD Science). The lower concentration, which is below the estimated critical aggregation concentration (CAC) at which the RADA-16I (SEQ ID NO:1) monomer self-assembles, while the higher concentration is above the CAC.

## RADARADARADARADA [PuraMatrix ™]
High Concentration, above the CAC
  CLDN1 LEVEL: 1.39
Low Concentration, below the estimated critical aggregation concentration (CAC)
  CLDN1 LEVEL: 1.09
Higher concentration, above the estimated critical aggregation concentration
  CLAUDIN 1 regulation (in words): significantly upregulates

Reference: patent US9241891B2, “Personal care compositions comprising self-assembling peptides” (The Procter & Gamble Company, priority 2012, dated 2016)
